Results on four compounds are retold here after patent publication US10176292B2, “STING crystals and modulators” (MEMORIAL SLOAN-KETTERING CANCER CENTER, priority 2013, dated 2019).

Changes are numbered by the printed parent chain.

One test deals with hSTING^R232 (aa 140-379) (Homo sapiens, UniProt Q86WV6, H232R). The experiment in a line: ITC binding, hSTING^R232 (wt hSTING).
Another test addresses T1, hSTING^H232 (aa 140-379) (Homo sapiens, UniProt Q86WV6).
T1 construct: His6-SUMO (N, cleaved yes); made in house; host or cells: E. coli BL21 (DE3) RIL
The test can be described thus: ITC binding, hSTING^H232. The note with it: Protein: 0.2 mM; Ligands: 1 mM; 30 mM HEPES, 100 mM NaCl, pH 7.5; 25° C.

A further test deals with THP1 cells. The test can be described thus: CXCL10 ELISA, THP1 stimulation with cGAMP isomers. It counts as cell-based. The note with it: Homo sapiens. Here is the method:
Human THP1 cells were cultured in RPMI1640 (Life Technologies) containing 10% FBS, 2 mM glutamine (Life Technologies), 1 mM sodium pyruvate (Life Technologies), and 100 U/ml penicillin/streptomycin (Life Technologies).
(§1) Bone marrow derived murine macrophages and THP-1 cells were stimulated by incubation with cGAMP isomers at indicated concentrations for 18 hrs, or by Digitonin permeabilization (30 minutes) at indicated concentrations as described (Woodward et al., 2010). Cytokines in supernatants were determined after 18 hrs by ELISA. THP1 cells were plated at 8×10^4 cells per 96-well and treated as described above.
(§2) CXCL10 was measured using the BD Opteia human IP-10 ELISA Set according to manufacturer's recommendations. Murine IFN-α was determined by ELISA using antibody RMMA-1 for capture and rabbit-anti-murine IFN-α polyclonal antibody for detection (PBL Interferon Source, Piscataway, N.J.). Dose-response curves were fitted and EC50 values were determined with Graphpad Prism (Graph Pad Software Inc., San Diego, Calif.).

Another test has as its system murine BMDMs. The experiment in a line: IFN-α ELISA, BMDM stimulation with cGAMP isomers. It counts as cell-based. The note with it: Mus musculus, BMDM - Ifna. Here is the method: as §1, §2
In a further test the target is T2, mSting^R231 (aa 139-378) (Mus musculus, UniProt Q3TBT3).
T2 sequence (Q3TBT3 139-378): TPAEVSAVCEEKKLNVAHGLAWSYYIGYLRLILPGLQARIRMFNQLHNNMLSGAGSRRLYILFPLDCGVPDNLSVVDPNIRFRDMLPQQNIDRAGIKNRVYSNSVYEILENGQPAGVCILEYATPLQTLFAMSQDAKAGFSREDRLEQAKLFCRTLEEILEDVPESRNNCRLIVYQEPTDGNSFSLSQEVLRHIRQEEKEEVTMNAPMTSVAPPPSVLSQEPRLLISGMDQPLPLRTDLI
The experiment in a line: ITC binding, mSting^R231.

A further test deals with T3, hSTING^H232 (Homo sapiens, UniProt Q86WV6).
T3 construct: Full-length hSTING (wt and substitutions) and mSTING (wt) constructs were used for this cellular assay; expressed in transfected cells; host or cells: HEK293T
T3 sequence (Q86WV6 whole entry): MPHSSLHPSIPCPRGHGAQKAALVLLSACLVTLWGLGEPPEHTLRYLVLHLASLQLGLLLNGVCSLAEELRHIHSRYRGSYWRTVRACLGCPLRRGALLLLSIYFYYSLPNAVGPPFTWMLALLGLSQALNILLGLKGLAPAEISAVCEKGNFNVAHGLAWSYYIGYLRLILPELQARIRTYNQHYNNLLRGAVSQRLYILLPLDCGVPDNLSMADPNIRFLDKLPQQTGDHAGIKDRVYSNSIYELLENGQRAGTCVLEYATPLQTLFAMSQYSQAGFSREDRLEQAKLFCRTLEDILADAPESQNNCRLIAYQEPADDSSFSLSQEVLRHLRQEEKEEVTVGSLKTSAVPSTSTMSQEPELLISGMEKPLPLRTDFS
The experiment in a line: IFN-β luciferase reporter, HEK293T cells with hSTING^H232. In kind it is cell-based. The note with it: digitonin permeabilization (30 min), 12 h.

The next test addresses T4, mSting^A231 (aa 139-378) (Mus musculus, UniProt Q3TBT3, R231A).
T4 sequence (Q3TBT3 139-378 R231A): T2 sequence (Q3TBT3 139-378) with R93A
Particulars: Protein: 0.2 mM; Ligands: 1.0 mM; pH 7.5; 25° C.

The test system of test [1] is bone-marrow-derived macrophages (BMDMs). The test can be described thus: qPCR of Ifnb1, I16, Cc15 mRNAs in BMDMs. The note with it: differences to the other two isomers did not exceed three-fold.
The test system of the next test is BMDMs. The experiment in a line: Western blot of Tbk1 and Irf3 phosphorylation in BMDMs. The note with it: 15 μM, 2 and 4 h post-treatment. It counts as cell-based, mouse. Here is the method:
BMDMs (1×10^6) were treated with cGAMP linkage isomers. At various times post-stimulation, the medium was removed and cells were collected. Whole-cell lysates were prepared at 2, 4, and 8 h post-treatment. Equal amounts of proteins were subjected to SDS-PAGE and transferred to a nitrocellulose membrane. Phosphorylation of IRF3 was determined using a rabbit polyclonal antibody specific for phosphoserine-396 of IRF3 (Cell signaling). The level of IRF3 was determined by using a rabbit polyclonal antibody against IRF3. Phosphorylation of TBK1 was determined using a rabbit monoclonal antibody specific for phosphoserine-172 of TBK1 (Cell Signaling). The level of TBK1 was determined by using a rabbit monoclonal antibody against TBK1 (Cell Signaling). Anti-glyceraldehyde-3-phosphate dehydrogenase (GADPH) was used as loading controls.

The next test addresses T5, hSTING^THP1 (Homo sapiens, UniProt Q86WV6, G230A/H232R/R293Q/R71H).
T5 construct: Full-length hSTING (wt and substitutions) and mSTING (wt) constructs were used for this cellular assay; expressed in transfected cells; host or cells: HEK293T
The test can be described thus: IFN-β luciferase reporter, HEK293T cells with hSTING^THP1. It counts as cell-based. The note with it: high concentrations, digitonin permeabilization. Here is the method:
(§3) Luciferase expression was determined after 12 h. […] Cells were lysed in Passive Lysis Buffer.

In the next test the target is T6, mSTING (mSting^R231) (Mus musculus, UniProt Q3TBT3).
T6 construct: Full-length hSTING (wt and substitutions) and mSTING (wt) constructs were used for this cellular assay; expressed in transfected cells; host or cells: HEK293T
T6 sequence (Q3TBT3 whole entry): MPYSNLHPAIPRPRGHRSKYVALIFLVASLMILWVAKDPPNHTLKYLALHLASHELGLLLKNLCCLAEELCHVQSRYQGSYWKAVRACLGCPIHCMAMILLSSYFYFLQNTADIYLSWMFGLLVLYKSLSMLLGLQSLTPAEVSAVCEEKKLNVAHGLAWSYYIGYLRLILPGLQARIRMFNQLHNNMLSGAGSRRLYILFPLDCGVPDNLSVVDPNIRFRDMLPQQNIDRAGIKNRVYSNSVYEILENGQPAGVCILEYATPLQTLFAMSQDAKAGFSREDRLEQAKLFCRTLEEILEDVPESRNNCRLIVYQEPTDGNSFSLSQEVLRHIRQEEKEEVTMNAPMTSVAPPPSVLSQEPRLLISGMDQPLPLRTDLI
The test can be described thus: IFN-β luciferase reporter, HEK293T cells with mSTING. It counts as cell-based. The note with it: 5 and 10 μM, digitonin permeabilization, 12 h.

The next test deals with T7, hSTING^R232 (Homo sapiens, UniProt Q86WV6, H232R).
T7 construct: Full-length hSTING (wt and substitutions) and mSTING (wt) constructs were used for this cellular assay; expressed in transfected cells; host or cells: HEK293T
T7 sequence (Q86WV6 whole entry H232R): as the sequence (Q86WV6 whole entry) above, with H232R counted along it
The experiment in a line: IFN-β luciferase reporter, HEK293T cells with hSTING (hSTING^R232). It counts as cell-based. The note with it: high concentrations, digitonin permeabilization. Here is the method:
as §3
Luciferase assays for DMXAA experiments were performed as described above. Briefly, 3×10^4 293T cells were reverse-transfected with STING constructs (5 ng per 96-well) and reporter constructs (50 ng pIFNβ-Gluc, 10 ng pLenti-EF1-Fluc for normalization, 35 ng pMAX-empty as stuffer, delivered with TransIT-LT1, MirusBio, Madison Wis.). […] 12 hours after stimulation with STING-ligands, cells were resuspended in passive lysis buffer and luciferase activity was determined using the respective substrates Coelenterazine and D-Luciferin (PJK, Kleinblittersdorf, Germany). Gaussia Luciferase values were then normalized to constitutive Firefly Luciferase values (resulting in Relative Light Units, RLU).

Test [2] addresses T8, hSTING S162A (hSTING^H232 and hSTING^R232 background) (Homo sapiens, UniProt Q86WV6, S162A).
T8 construct: Full-length hSTING (wt and substitutions) and mSTING (wt) constructs were used for this cellular assay; expressed in transfected cells; host or cells: HEK293T
It counts as cell-based. The note with it: digitonin permeabilization.

Where [3] appears, read: Protein: 0.2 mM, Ligands: 0.9 mM, pH 7.5, 25° C.
Where [4] appears, read: THP-1, 0.5 h, THP1 - CXCL10, +Digitonin (30 min).
The mark [5] stands for this setting: THP-1, THP1 - CXCL10, unpermeabilized, 18 h.
[6] abbreviates: cGAMP isomers, Protein: 0.2 mM, Ligands: 0.9 mM, 100 mM NaCl, pH 7.5, 25° C.

Chain of hSTING^R232 (aa 140-379) (Q86WV6 140-379 H232R): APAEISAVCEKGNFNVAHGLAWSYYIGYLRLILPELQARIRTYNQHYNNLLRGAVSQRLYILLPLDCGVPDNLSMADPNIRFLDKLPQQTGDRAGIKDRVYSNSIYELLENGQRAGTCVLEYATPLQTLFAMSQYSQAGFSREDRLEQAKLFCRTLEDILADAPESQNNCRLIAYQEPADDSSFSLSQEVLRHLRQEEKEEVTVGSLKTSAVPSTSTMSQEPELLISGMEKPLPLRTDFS
T1 sequence (Q86WV6 140-379): as the sequence (Q86WV6 140-379 H232R) above, with R93H counted along it
T5 sequence (Q86WV6 whole entry R71H/G230A/H232R/R293Q): as the sequence (Q86WV6 whole entry) above, with R71H, G230A, H232R, R293Q counted along it
T8 sequence (Q86WV6 whole entry S162A): as the sequence (Q86WV6 whole entry) above, with S162A counted along it

Turning to `Nc1nc2c(ncn2[C@@H]2O[C@@H]3COP(=O)(O)O[C@@H]4[C@H](O)[C@@H](COP(=O)(O)O[C@@H]2[C@@H]3O)O[C@H]4n2cnc3c(N)ncnc32)c(=O)[nH]1`, the results for the Kd at hSTING^R232 (aa 140-379), on hSTING^H232 (aa 140-379) and at mSting^R231 (aa 139-378) were 170 ± 20 nM, 2500 ± 100 nM and 180 ± 20 nM, respectively. The TΔS entry was “+14.88 Kcal/mol” on hSTING^R232 (aa 140-379) (setting [3]), “+0.37 Kcal/mol” on hSTING^H232 (aa 140-379) and “+13.12 Kcal/mol” on mSting^R231 (aa 139-378) (setting [6]). Besides, the ΔG was -9.25 kcal/mol at hSTING^R232 (aa 140-379) (setting [3]), -7.52 kcal/mol at hSTING^H232 (aa 140-379) and -9.20 kcal/mol on mSting^R231 (aa 139-378) (setting [6]). Also, the ΔH entry was “+5.63 Kcal/mol” at hSTING^R232 (aa 140-379) (setting [3]), -7.15 kcal/mol on hSTING^H232 (aa 140-379) and “+3.92 Kcal/mol” on mSting^R231 (aa 139-378) (setting [6]). For the same compound, the EC50 was found to be 120 nM in the test with THP1 cells (setting [4]); 1200 nM with THP1 cells (setting [5]); 800 nM with murine BMDMs (0.5 h, +Digitonin (30 min)); 12500 nM in the test with murine BMDMs (unpermeabilized, 18 h). Further, the “IFN luciferase reporter dose-response to cGAMP isomers” value on hSTING^H232 was “no significant differences in stimulation”.

Turning to `Nc1nc2c(ncn2[C@@H]2O[C@@H]3COP(=O)(O)O[C@H]4[C@@H](O)[C@H](n5cnc6c(N)ncnc65)O[C@@H]4COP(=O)(O)O[C@@H]2[C@@H]3O)c(=O)[nH]1`, the EC50 with THP1 cells (setting [4]) stood at 140 nM; in the test with THP1 cells (setting [5]), 3400 nM; in the test on murine BMDMs (0.5 h, +Digitonin (30 min)) it was 290 nM; in the test with murine BMDMs (unpermeabilized, 18 h) it was 12500 nM.

Take `Nc1nc2c(ncn2[C@@H]2O[C@@H]3COP(=O)(O)O[C@H]4[C@@H](O)[C@H](n5cnc6c(N)ncnc65)O[C@@H]4COP(=O)(O)O[C@H]3[C@H]2O)c(=O)[nH]1`: the EC50 in the test on THP1 cells (setting [4]) was found to be 330 nM; with THP1 cells (setting [5]) it was 5700 nM; in the test on murine BMDMs (0.5 h, +Digitonin (30 min)), 420 nM; with murine BMDMs (unpermeabilized, 18 h), 8400 nM. For the same compound, the TΔS entry was “+12.94 Kcal/mol” at mSting^R231 (aa 139-378) (setting [6]) and “+0.65 Kcal/mol” at mSting^A231 (aa 139-378). Further, the ΔH result was “+3.95 Kcal/mol” on mSting^R231 (aa 139-378) (setting [6]) and -7.36 kcal/mol on mSting^A231 (aa 139-378). This compound gave a ΔG on mSting^A231 (aa 139-378) of -8.01 kcal/mol. Moreover, the “potency in induction of Ifnb1, I16, Cc15 among the three cGAMP isomers” value in test [1] was “most potent compound”. For the same compound, the “Tbk1 and Irf3 protein phosphorylation” value in the test with BMDMs was “highest levels”.

Turning to `Nc1nc2c(ncn2[C@@H]2O[C@@H]3COP(=O)(O)O[C@H]4[C@@H](O)[C@H](n5cnc6c(=O)[nH]c(N)nc65)O[C@@H]4COP(=O)(O)O[C@H]3[C@H]2O)c(=O)[nH]1` [c[di-GMP], cyclic di-GMP], the “IFN luciferase reporter response to c[di-GMP]” value is “residual response” on hSTING^THP1, “stimulated mSting” on mSTING (mSting^R231), “residual response” at hSTING^R232 and “not restoring c[di-GMP] responsiveness” in test [2].
